From patent publication US12128044B2, “Fused tricyclic compounds and uses thereof in medicine” (SUNSHINE LAKE PHARMA CO., LTD., priority 2018, dated 2024)

Columns and labels:
[1] = tested on: HBsAg secretion; experiment: Inhibition of HBsAg secretion (ELISA) in HepG2.2.15 cells; format: cell-based; settings: Hepatitis B virus, HepG2.2.15, read-out: Hbs Ag IC50
Source text: (§1) The chromosome of HepG2.2.15 cells integrates a complete HBV genome and stably expresses viral RNA and protein. HepG2.2.15 cells can secrete mature hepatitis B virus particles and HBsAg into culture medium. Virus particles DNA and HBsAg secreted by HepG 2.2.15 cells can be quantified by q-PCR and ELISA, and the effects of compounds on viral replication and HBsAg secretion can be detected.
(§2) HepG 2.2.15 cells were inoculated with 8,000 per cell to 96-well cell culture plates in duplicate, and were cultured for 3 days until the cells grew to full-hole. Cells were treated with 4-fold serial dilutions of compounds for 10 days, and were given alternately every other day. The final concentration of DMSO in all pores was 0.5% and DMSO was used as a drug-free control. The supernatant was collected for quantitative detection of HBsAg on day 11.
The level of HBsAg secreted by the compound after treatment is detected by ELISA method, and the method uses a hepatitis B surface antigen diagnostic kit (Shanghai Kehua Biotech Co., Ltd. S10910113). 25 μL of the supernatant to be assayed (PBS was diluted to 75 μL) was added to per well of the ELISA plate, positive control and negative control kit were set. ELISA plate was blocked with a cover paper, and incubated at 37° C. for 60 minutes. The ELISAplate was taken out, the seal was teared off, and 50 μL of enzyme conjugate was added to each well. The ELISA plate was oscillated on the shaker for 10 seconds, blocked with a cover paper and incubated at 37° C. for 30 minutes. The ELISA plate was taken out, the seal was teared off, and the ELISA plate was washed 5 times: each time the liquid in the hole was discarded, the washing liquid was filled into the holes, left to stand for 60 seconds, dried, and the liquid residue was patted on the absorbent paper. Immediately after the end of washing, a freshly prepared mixture of Developer A and Developer B was added to all wells: 100 μL per well. The ELISA plate was oscillated on the shaker for 10 seconds, blocked with a cover paper and incubated at 37° C. for 30 minutes. 50 μL of stop solution was added to all wells. Absorbance was read on the Envision plate reader at 450 nm. Concentration-HBsAg OD450 was processed using Graphpad Prism 5 software, and IC50 of Compounds Inhibiting Virus Replication was calculated by Four-parameter Nonlinear Regression Model.

[2] = tested on: HBV DNA replication; experiment: Inhibition of HBV virus replication (HBV DNA in supernatant, qPCR) in HepG2.2.15 cells; format: cell-based; settings: Hepatitis B virus, 10 days treatment, supernatant day 11, qPCR
Source text: as §1
as §2, with “HBV DNA” for “HBsAg”
Viral genomic DNA was detected by qPCR method, and HBV primers were as follows: • HBV-For-202, […] (SEQ ID NO:1); • HBV-Rev-315, […](SEQ ID NO:2).
The SYBR Premix Ex Taq II-Takara DRR081S kit was used, and 1 μL of cell culture supernatant was used as a template. A standard curve was made using a plasmid containing the HBV genome, and the viral copy number was calculated using the standard curve. Concentration-virus copy number was processed using Graphpad Prism 5 software, and IC50 of Compounds Inhibiting Virus Replication was calculated by Four-parameter Nonlinear Regression Model.

[3] = Pharmacokinetic experiments in beagle dogs; format: in vivo
Method: Pharmacokinetic experiments of the compounds of the invention in beagle dogs (Body weight 10-12 kg, male, age 10-12 months, 3 per oral group, 3 per intravenous injection group) Test method:
Beagle was administered orally with 2.5 mg/kg or 5 mg/kg of the compound tested or intravenously injected with 1 mg/kg or 2 mg/kg of the compound tested.
After administration, venous blood was collected at time points (0.083, 0.25, 0.5, 1, 2, 4, 6, 8 and 24 hours) and collected in an anticoagulation tube with EDTA-K2. After liquid-liquid extraction, plasma samples were quantitatively analyzed by multiple reaction ion monitoring (MRM) on a triple quadrupole tandem mass spectrometer. Pharmacokinetic parameters were calculated using a noncompartmental method by WinNonLin 6.3 software.

Compound	IC50 [1] [nM]	IC50 [2] [nM]	other results
COc1cc2c(cc1-c1cnn(C3CCC3)c1)CN(C(C)C)n1cc(C(=O)O)c(=O)cc1-2 [Example 17, 9-(1-cyclobutyl-1H-pyrazole-4-yl)-6-isopropyl-10-methoxy-2-oxo-6,7-dihydro-2H-pyrido[2,1-a]phthalazine-3-carboxylic acid]	4.07	2.82	
COc1cc2c(cc1-c1cnn(C(F)F)c1)CN(C(C)C)n1cc(C(=O)O)c(=O)cc1-2 [Example 5, 9-(1-(difluoromethyl)-1H-pyrazole-4-yl)-6-isopropyl-10-methoxy-2-oxo-6,7-dihydro-2H-pyrido [2,1-a]phthalazine-3-carboxylic acid]	14.3	7.3	F ([3]; PO 5 mg/kg vs IV 1 mg/kg): 76.7%; AUC(0-inf) ([3]; male, dog, plasma, IV, 1 mg/kg): 17400 ng·h/mL; AUC(0-t) ([3]; male, dog, plasma, IV, 1 mg/kg): 16900 ng·h/mL; Cmax ([3]; male, dog, plasma, IV, 1 mg/kg): 2170 ng/mL; clearance ([3]; male, dog, plasma, IV, 1 mg/kg): 0.955 mL/min/kg; AUC(0-inf) ([3]; male, dog, plasma, PO, 5 mg/kg): 66700 ng·h/mL; AUC(0-t) ([3]; male, dog, plasma, PO, 5 mg/kg): 63300 ng·h/mL; Cmax ([3]; male, dog, plasma, PO, 5 mg/kg): 8710 ng/mL
COc1cc2c(cc1-c1cccs1)CN(C(C)C)n1cc(C(=O)O)c(=O)cc1-2 [Example 2, 6-isopropyl-10-methoxy-2-oxo-9-(thiophen-2-yl)-6,7-dihydro-21H-pyrido[2,1-a]phthalazine-3-carboxylic acid]	1.72	2.06	
COc1cc2c(cc1-c1nccs1)CN(C(C)C)n1cc(C(=O)O)c(=O)cc1-2 [Example 3, 6-isopropyl-10-methoxy-2-oxo-9-(thiazol-2-yl)-6,7-dihydro-2H-pyrido[2,1-a]phthalazine-3-carboxylic acid]	3.26	1.71	
COc1cc2c(cc1-c1cnn(C3CC3)c1)CN(C(C)C)n1cc(C(=O)O)c(=O)cc1-2 [Example 16, 9-(1-cyclopropyl-1H-pyrazole-4-yl)-6-isopropyl-10-methoxy-2-oxo-6,7-dihydro-2H-pyrido[2,1-a]phthalazine-3-carboxylic acid]	6.11	2.74	
COc1cc2c(cc1-c1cnn(C(C)C)c1)CN(C1CCC1)n1cc(C(=O)O)c(=O)cc1-2 [Example 15, 6-cyclobutyl-9-(1-isopropyl-1H-pyrazol-4-yl)-10-methoxy-2-oxo-6,7-dihydro-2H-pyrido[2,1-a]phthalazine-3-carboxylic acid]	1.83	2.1	
COc1cc2c(cc1-c1cnn(C(C)C)c1)CN(C1CC1)n1cc(C(=O)O)c(=O)cc1-2 [Example 14, 6-cyclopropyl-9-(1-isopropyl-1H-pyrazol-4-yl)-10-methoxy-2-oxo-6,7-dihydro-2H-pyrido[2,1-a]phthalazine-3-carboxylic acid]	< 0.24	< 0.24	
COc1cc2c(cc1-c1cnn(C3CCOCC3)c1)CN(C(C)C)n1cc(C(=O)O)c(=O)cc1-2 [Example 19, 6-isopropyl-10-methoxy-2-oxo-9-(1-(tetrahydro-2H-pyran-4-yl)-1H-pyrazole-4-yl)-6,7-dihydro-2H-pyrido[2,1-a]phthalazine-3-carboxylic acid]	7.82	3.98	
COc1cc2c(cc1-c1cnn(C(C)C)c1)CN(C(C)C)n1cc(C(=O)O)c(=O)cc1-2 [Example 4, 6-isopropyl-9-(1-isopropyl-1H-pyrazol-4-yl)-10-methoxy-2-oxo-6,7-dihydro-2H-pyrido[2,1-a]phthalazine-3-carboxylic acid]	9.6	3.81	
COc1cc2c(cc1-c1cnn(C(C)C)c1)CN(C(C)(C)C)n1cc(C(=O)O)c(=O)cc1-2 [Example 13, 6-(tert-butyl)-9-(1-isopropyl-1H-pyrazol-4-yl)-10-methoxy-2-oxo-6,7-dihydro-2H-pyrido[2,1-a]phthalazine-3-carboxylic acid]	0.97	0.7	
COc1cc2c(cc1-c1cnn(C3CCC(F)(F)CC3)c1)CN(C(C)C)n1cc(C(=O)O)c(=O)cc1-2 [Example 7, 9-(1-(4,4-Difluorocyclohexyl)-1H-pyrazol-4-yl)-6-isopropyl-10-methoxy-2-oxo-6,7-dihydro-2H-pyrido[2,1-a]phthalazine-3-carboxylic acid]	6.73	1.76	
COc1cc2c(cc1-c1cnn(C3CCCC3)c1)CN(C(C)C)n1cc(C(=O)O)c(=O)cc1-2 [Example 18, 9-(1-cyclopentyl-1H-pyrazole-4-yl)-6-isopropyl-10-methoxy-2-oxo-6,7-dihydro-2H-pyrido [2,1-a]phthalazine-3-carboxylic acid]	3.73	2.28	
COc1cc2c(cc1-c1cnn(C3CC(C)(C)OC(C)(C)C3)c1)CN(C(C)C)n1cc(C(=O)O)c(=O)cc1-2 [Example 8, 6-isopropyl-10-methoxy-2-oxo-9-(1-(2,2,6,6-tetramethyltetrahydro-2H-pyran-4-yl)-1H-pyrazole-4-yl)-6,7-dihydro-2H-pyrido[2,1-a]phthalazine-3-carboxylic acid]	6.03	6.26	
COc1cc2c(cc1-c1ccco1)CN(C(C)C)n1cc(C(=O)O)c(=O)cc1-2 [Example 1, 9-(furan-2-yl)-6-isopropyl-10-methoxy-2-oxo-6,7-dihydro-2H-pyrido[2,1-a]phthalazine-3-carb oxylic acid]	4.27	2.68	
